{"source": "patent US20100113436A1", "about": "“DISPIRO TETRAOXANE COMPOUNDS AND THEIR USE IN THE TREATMENT OF MALARIA AND/OR CANCER” (priority 2006, published 2010)", "key": {"[1]": {"experiment": "Timed iron degradation stability, FeBr2 in THF", "type": "physicochemical", "settings": "ferrous bromide/THF", "from_the_text": "The resulting residue was purified by flash column chromatography and the % recovery of starting endoperoxide calculated (Table 15)."}, "[2]": {"system": "Salmonella typhimurium NM2009", "experiment": "Salmonella typhimurium SOS/umu genotoxicity assay", "from_the_text": "(§1) This assay is based on the ability of DNA damaging agents to induce the expression of the umu operon. The Salmonella strains have a plasmid pSK1002 which carries an umuC-lacZ fused gene that produces a hybrid protein with β-galactosidase activity and whose expression is controlled by the umu regulatory region."}, "[3]": {"system": "Salmonella typhimurium TA1535/pSK1002", "experiment": "Salmonella typhimurium SOS/umu genotoxicity assay", "settings": "for Max. Fold Increase / Potential genotox: −S9", "from_the_text": "as §1"}, "Vero Kidney": {"system": "Vero Kidney", "experiment": "Cellular cytotoxicity screen, Resazurin reduction", "type": "cell-based, African green monkey, Cercopithecus aethiops", "from_the_text": "(§2) Values represent Tox 50 in μM. Cytotoxicity measured by Resazurin reduction.\n(§3) Single full dose response curves generated using 10 independent drug concentrations. The 100 therapeutic index (TI) is the ration of the TOX 50 to the IC50 for the specific compound against the 3D7 P. falciparum isolate. The primary hepatocytes have demonstrable drug metabolising activity. The tetraoxane derivatives are remarkably non-toxic in these screens with in vitro TIs of between 5000 to 17000!."}, "[4]": {"system": "MRC-5 Embryonal lung, diploid", "experiment": "Cellular cytotoxicity screen, Resazurin reduction", "type": "cell-based, Human", "from_the_text": "as §2, §3"}, "[5]": {"system": "HepG2 Human hepatocyte carcinoma", "experiment": "Cellular cytotoxicity screen, Resazurin reduction", "type": "cell-based", "settings": "Hep2G", "from_the_text": "as §2, §3"}, "[6]": {"system": "L6 Sketal muscle myoblast", "experiment": "Cellular cytotoxicity screen, Resazurin reduction", "type": "cell-based, rat", "from_the_text": "as §2, §3"}, "[7]": {"system": "H9c2(2-1) Myocardium, heart", "experiment": "Cellular cytotoxicity screen, Resazurin reduction", "type": "cell-based, rat", "settings": "H9c(2-1)", "from_the_text": "as §2, §3"}, "[8]": {"system": "3D7 strain of Plasmodium falciparum", "experiment": "In vitro antimalarial activity, 48-h [3H]-hypoxanthine incorporation assay", "type": "cell-based", "experimental": "The 3D7 strain of Plasmodium falciparum was used in this study. This strain is known to be […] Parasites were maintained in continuous culture using the method of Jensen and Trager^4. […] Stock drug solutions were prepared in 100% dimethylsulphoxide (DMSO) and diluted to the appropriate concentration using complete medium. Assays were performed in sterile 96-well microlitre plates, each plate contained 200 μl of parasite culture (2% parasitemia, 0.5% haematocrit) with or without 10 μl drug dilutions. Each drug was tested in triplicate and parasite growth compared to control wells (which constituted 100% parasite growth). […] IC50 values were calculated by interpolation of the probit transformation of the log dose-response curve."}, "Plasmodium yoelli": {"system": "Plasmodium yoelli", "experiment": "4-day Peter's suppressive test", "type": "in vivo", "settings": "4-day Peter's test, mice", "experimental": "Selections of the compounds were screened for in vivo activity. In vivo data (Table 6) was determined using 30 mg/kg oral (po) and subcutaneous (sc) doses in a 4-days Peter's test. For subcutaneous administration, compounds were dissolved in 10% dimethylsulfoxide (DMSO) 0.05% Tween 80 (Sigma, Dorset, UK) in distilled water. For oral administration, compounds were dissolved in standard suspending formula (SSV) [0.5% sodium carboxymethylcellulose, 0.5% benzyl alcohol, 0.4% Tween 80, 0.9% NaCl (all Sigma)]. Subcutaneous (s.c) or oral (p.o) treatment was done with 0.2 ml of a solution of the test compound two hours (day 0) and on days 1, 2, and 3 post infections. Parasitaemia was determined by microscopic examination of Giemsa stained blood films taken on day 4. Microscopic counts of blood films from each mouse were processed using MICROSOFT@EXCELL spreadsheet (Microsoft Corp.) and expressed as percentage of inhibition from the arithmetic mean parasitaemias of each group in relation to the untreated group."}, "P. berghei ANKA [9]": {"system": "P. berghei ANKA", "experiment": "In vivo dose response screening against P. berghei ANKA", "parameters": "species or system mice", "settings": "for ED50: Plasmodium berghei", "experimental": "Compound 29c, 29h and 291 were then subjected to dose response experiment against the P. berghei ANKA and the results are summarized in Table 7 below."}, "P. berghei ANKA [10]": {"system": "P. berghei ANKA", "experiment": "In vivo dose response screening against P. berghei ANKA", "settings": "P. berghei ANKA infected mice; Table 9; sigmoidal curve calculation"}, "[11]": {"settings": "3D7, 3D7 strain, mean of triplicate results, Table 5, read-out: Mean IC50"}, "[12]": {"settings": "ratio TOX 50 to IC50 against 3D7 P. falciparum"}}, "note": "pIC50: −log10 of the molar value. Read-outs that look alike come from different tables or passages of the source."}
{"smiles": "O=S(=O)(c1ccccc1)N1CCC2(CC1)OOC1(O2)C2CC3CC(C2)CC1C3", "note": "(stereo not shown) [Tetraoxane 42]", "values": [{"measurement": "degradation", "setting": "[1]; after 4 h", "value": "~90", "unit": "%"}, {"measurement": "turnover", "setting": "[1]; after 48 h", "value": 100, "unit": "%"}]}
{"smiles": "CC(C)(C)NCc1cc(Nc2ccnc3cc(Cl)ccc23)ccc1Cl", "note": "[Tetraoxane D535, 4′Chloro N-tertbutyl amodiaquin, reference compound]", "values": [{"measurement": "MCE NM2009 (Maximum Co w/o effects on bacteria growth or beta-galactosidase production)", "setting": "[2]", "value": 140, "unit": "µM"}, {"measurement": "Potential genotox", "setting": "[2]", "value": "NEG"}, {"measurement": "MCE TA1535 (Maximum Co w/o effects on bacteria growth or β-galactosidase production)", "setting": "[3]", "value": 140, "unit": "µM"}, {"measurement": "Max. Fold Increase", "setting": "[3]", "value": "1.10 ± 0.07", "unit": "fold"}, {"measurement": "Potential genotox", "setting": "[3]", "value": "NEG"}]}
{"smiles": "COc1cccc2c1C(=O)c1c(O)c3c(c(O)c1C2=O)C[C@@](O)(C(=O)CO)C[C@@H]3O[C@H]1C[C@H](N)[C@H](O)[C@H](C)O1", "note": "[Doxorubicin]", "values": [{"measurement": "Tox 50", "setting": "Vero Kidney", "value": ">5", "unit": "µM"}, {"measurement": "Tox 50", "setting": "[4]", "value": 2, "unit": "µM"}, {"measurement": "Tox 50", "setting": "[5]", "value": 0.3, "unit": "µM"}, {"measurement": "Tox 50", "setting": "[6]", "value": ">5", "unit": "µM"}, {"measurement": "Tox 50", "setting": "[7]", "value": 3, "unit": "µM"}]}
{"smiles": "O=S(=O)(c1ccccc1)N1CCC2(CC1)COC1(OO2)C2CC3CC(C2)CC1C3", "note": "(stereo not shown) [Tetraoxane 43]", "values": [{"measurement": "degraded", "setting": "[1]; after 48 h", "value": 57, "unit": "%"}]}
{"smiles": "O=C(CC1CCC2(CC1)OOC1(OO2)C2CC3CC(C2)CC1C3)NC1CC1", "note": "(stereo not shown) [Tetraoxane 29c, Adamantyl-N-Cyclopropyl tetraoxane acetamide]", "values": [{"measurement": "pIC50", "setting": "[8]; [11]", "value": 8.64}, {"measurement": "melting point", "value": "140 to 142", "unit": "°C"}, {"measurement": "Percentage of inhibition at 30 mg/kg (p.o)", "setting": "Plasmodium yoelli", "value": 100, "unit": "%"}, {"measurement": "ED90", "setting": "P. berghei ANKA [9]; Chloroquine Resistant Strains of the P. Berghei ANKA, Table 7", "value": 20.33, "unit": "mg/kg"}, {"measurement": "ED50", "setting": "P. berghei ANKA [9]; in Mus musculus, Chloroquine Resistant Strains of the P. Berghei ANKA, Table 7", "value": 10.3, "unit": "mg/kg"}]}
{"smiles": "O=S(=O)(C1CC1)N1CCC2(CC1)OOC1(OO2)C2CC3CC(C2)CC1C3", "note": "[Tetraoxane 39d]", "values": [{"measurement": "pIC50", "setting": "[8]; 3D7, read-out: Mean IC50", "value": 8.45}, {"measurement": "MCE NM2009 (Maximum Co w/o effects on bacteria growth or beta-galactosidase production)", "setting": "[2]; Salmonella typhimurium", "value": 50, "unit": "µM"}, {"measurement": "Max. Fold Increase", "setting": "[2]; −S9", "value": "1.09 ± 0.03", "unit": "fold"}, {"measurement": "Potential genotox", "setting": "[2]; −S9", "value": "NEG"}, {"measurement": "MCE TA1535 (Maximum Co w/o effects on bacteria growth or β-galactosidase production)", "setting": "[3]; Salmonella typhimurium", "value": 50, "unit": "µM"}, {"measurement": "genotoxicity result in SOS/umu assay", "setting": "[3]; both strains TA1535/pSK1002 and NM2009, highest concentration tested 50 μM, absence and presence of S-9 mix", "value": "Negative"}, {"measurement": "Max. Fold Increase", "setting": "[3]", "value": "1.05 ± 0.09", "unit": "fold"}, {"measurement": "Potential genotox", "setting": "[3]", "value": "NEG"}, {"measurement": "ED90", "setting": "P. berghei ANKA [10]", "value": 49.77, "unit": "mg/kg"}, {"measurement": "Tox 50", "setting": "Vero Kidney", "value": ">50", "unit": "µM"}, {"measurement": "Theraputic Index (TI)", "setting": "Vero Kidney; [12]", "value": ">14285"}, {"measurement": "Tox 50", "setting": "[4]", "value": ">50", "unit": "µM"}, {"measurement": "Theraputic Index (TI)", "setting": "[4]; [12]", "value": ">14285"}, {"measurement": "Tox 50", "setting": "[5]", "value": ">50", "unit": "µM"}, {"measurement": "Theraputic Index (TI)", "setting": "[5]; [12]", "value": ">14285"}, {"measurement": "solubility", "setting": "physchem", "value": 50, "unit": "µM"}, {"measurement": "Tox 50", "setting": "[6]", "value": ">50", "unit": "µM"}, {"measurement": "Theraputic Index (TI)", "setting": "[6]; [12]", "value": ">14285"}, {"measurement": "Tox 50", "setting": "[7]", "value": ">50", "unit": "µM"}, {"measurement": "Theraputic Index (TI)", "setting": "[7]; [12]", "value": ">14285"}, {"measurement": "ED50", "setting": "P. berghei ANKA [9]; P. berghei ANKA infected mice, Table 9", "value": 7.93, "unit": "mg/kg"}]}
{"smiles": "O=C(CC1CCC2(CC1)OOC1(CCCCCCCCCCC1)OO2)N1CCOCC1", "note": "[Tetraoxane 28h, 1-Morpholin-4-yl-2-(7,8,21,22-tetraoxa-dispiro[5.2.11.2]docos-3-yl)-ethanone]", "values": [{"measurement": "pIC50", "setting": "[8]; [11]", "value": 7.63}, {"measurement": "melting point", "value": "118 to 120", "unit": "°C"}]}
{"smiles": "O=C(CC1CCC2(CC1)OOC1(OO2)C2CC3CC(C2)CC1C3)N1CCS(=O)(=O)CC1", "note": "(stereo not shown) [Tetraoxane 32, 1-(1,1-Dioxo-1λ^6-thiommpholin-4-yl)-2-tetraoxa-dispiro-adamantyl ethanone]", "values": [{"measurement": "pIC50", "setting": "[8]; [11]", "value": 7.62}, {"measurement": "melting point", "value": "189 to 191", "unit": "°C"}]}
